Experimental data from patent publication US20250375455A1 (priority 2022, published 2025).
In brackets after ≈: the same amount, converted by molar mass. Counter-ions that a name gives are not always drawn. Like-named read-outs stand apart in the source and are kept apart here.

Legend:
Assay in all cases: microbe, parasite or virus in culture
Mtb-lineage2 = type: cell-based, Mycobacterium tuberculosis; conditions: for direct inhibition of growth: Mtb-lineage2, in-vitro, 5, 10 and 50 μM, over 20 days; for IC50 / MIC: Mycobacterium tuberculosis
M. bovis = type: cell-based, Mycobacterium bovis; conditions: for MIC: Mycobacterium tuberculosis variant bovis
Maf-lineage6 = type: cell-based, Mycobacterium africanum; conditions: for direct inhibition of growth: Maf-lineage6, in-vitro, 5, 10 and 50 μM, over 20 days; for MIC: Mycobacterium tuberculosis
Mtb-lineage4 = type: cell-based, Mycobacterium tuberculosis; conditions: for direct inhibition of growth: Mtb-lineage4, in-vitro, 5, 10 and 50 μM, over 20 days
Maf-lineage5 = type: cell-based, Mycobacterium africanum; conditions: for direct inhibition of growth: Maf-lineage5, in-vitro, 5, 10 and 50 μM, over 20 days

C#Cc1cccc(Nc2ncnc3cc(OCCOC)c(OCCOC)cc23)c1 [Erlotinib]
direct inhibition of growth (Mtb-lineage2): directly inhibit growth | IC50 (Mtb-lineage2; 360 h, Mtb-lineage2, Day 15): 16.3 µM | MIC (Mtb-lineage2; 360 h, Mtb-lineage2, Day 15, read-out: MIC): 33 µM (≈ 13 µg/mL) | IC50 (Mtb-lineage2; 384 h, Mtb-lineage2, Day 16): 10.1 µM | MIC (Mtb-lineage2; 384 h, Mtb-lineage2, Day 16, read-out: MIC): ~1.07 µM (≈ 0.423 µg/mL) | IC50 (Mtb-lineage2; 408 h, Mtb-lineage2, Day 17): 8.65 µM | MIC (Mtb-lineage2; 408 h, Mtb-lineage2, Day 17, read-out: MIC): 41 µM (≈ 16.1 µg/mL) | IC50 (Mtb-lineage2; 456 h, Mtb-lineage2, Day 19): 6.79 µM | MIC (Mtb-lineage2; 456 h, Mtb-lineage2, Day 19, read-out: MIC): 49.4 µM (≈ 19.4 µg/mL) | IC50 (Mtb-lineage2; 480 h, Mtb-lineage2, Day 20): 6.19 µM | IC50 (Mtb-lineage2; […], Mtb-lineage2, Day 18): 7.61 µM | MIC (Mtb-lineage2; […], Mtb-lineage2, Day 18, read-out: MIC): 43.6 µM (≈ 17.1 µg/mL) | direct inhibition of growth (M. bovis): directly inhibit growth | direct inhibition of growth (Maf-lineage6): directly inhibit growth | direct inhibition of growth (Mtb-lineage4): directly inhibit growth | direct inhibition of growth (Maf-lineage5): directly inhibit growth

COc1cc2ncnc(Nc3ccc(F)c(Cl)c3)c2cc1OCCCN1CCOCC1 [Gefitinib]
MIC (Mtb-lineage2; 240 h): 54.3 µM (≈ 24.3 µg/mL) | MIC (Mtb-lineage2; 288 h): 54.3 µM (≈ 24.3 µg/mL) | MIC (Mtb-lineage2; 312 h): 52.2 µM (≈ 23.3 µg/mL) | MIC (Mtb-lineage2; 336 h): 54.8 µM (≈ 24.5 µg/mL) | MIC (Mtb-lineage2; […]): 52.7 µM (≈ 23.6 µg/mL)

Cc1ccc(NC(=O)c2ccc(CN3CCN(C)CC3)cc2)cc1Nc1nccc(-c2cccnc2)n1 [Imatinib, Imatinib mesylate]
susceptibility to direct inhibition (Mtb-lineage2; Example 4, Mtb-lineage2, concentrations up to 200 μM): more susceptible to direct inhibition | direct inhibition of growth (Mtb-lineage2): directly restricted the growth | MIC (Mtb-lineage2; 240 h, Mtb-lineage2 (a), Day 10, read-out: MIC): 56 µM | MIC (Mtb-lineage2; 240 h, Mtb-lineage2 (b), Day 10, read-out: MIC): 60.4 µM | MIC (Mtb-lineage2; 240 h, Mtb-lineage2, Day 10, read-out: MIC): 56 µM | MIC (Mtb-lineage2; 288 h, Mtb-lineage2 (a), Day 12, read-out: MIC): 56.7 µM | MIC (Mtb-lineage2; 288 h, Mtb-lineage2 (b), Day 12, read-out: MIC): 60.7 µM | MIC (Mtb-lineage2; 288 h, Mtb-lineage2, Day 12, read-out: MIC): 56.7 µM | MIC (Mtb-lineage2; 312 h, Mtb-lineage2 (a), Day 13, read-out: MIC): 57.1 µM | MIC (Mtb-lineage2; 312 h, Mtb-lineage2 (b), Day 13, read-out: MIC): 60.5 µM | MIC (Mtb-lineage2; 312 h, Mtb-lineage2, Day 13, read-out: MIC): 57.1 µM | MIC (Mtb-lineage2; 336 h, Mtb-lineage2 (a), Day 14, read-out: MIC): 57.4 µM | MIC (Mtb-lineage2; 336 h, Mtb-lineage2 (b), Day 14, read-out: MIC): 85.4 µM | MIC (Mtb-lineage2; 336 h, Mtb-lineage2, Day 14, read-out: MIC): 57.4 µM | MIC (Mtb-lineage2; 360 h, Mtb-lineage2 (a), Day 15, read-out: MIC): 57.8 µM | MIC (Mtb-lineage2; 360 h, Mtb-lineage2 (b), Day 15, read-out: MIC): 86.7 µM | MIC (Mtb-lineage2; […], Mtb-lineage2 (a), Day 11, read-out: MIC): 56.4 µM | MIC (Mtb-lineage2; […], Mtb-lineage2 (b), Day 11, read-out: MIC): 61 µM | MIC (Mtb-lineage2; […], Mtb-lineage2, Day 11, read-out: MIC): 56.4 µM | direct inhibition of growth (M. bovis): directly restricted the growth | susceptibility to direct inhibition (M. bovis): more susceptible to direct inhibition | MIC (M. bovis; 240 h): 8.39 µM | MIC (M. bovis; 288 h): 21.1 µM | MIC (M. bovis; 312 h): 25.6 µM | MIC (M. bovis; 336 h): 30.3 µM | MIC (M. bovis; 360 h): 35.2 µM | MIC (M. bovis; […]): 16.3 µM | response to drug (Maf-lineage6): didn't respond | susceptibility to direct inhibition (Maf-lineage6; Example 4, Maf-lineage6 (c), concentrations up to 200 μM): more susceptible to direct inhibition | direct inhibition of growth (Maf-lineage6): not | MIC (Maf-lineage6; 240 h, Maf-lineage6 (a), Day 10): ~0.743 µM | MIC (Maf-lineage6; 240 h, Maf-lineage6 (b), Day 10): ~9090 µM | MIC (Maf-lineage6; 240 h, Maf-lineage6 (c), Day 10): 101 µM | MIC (Maf-lineage6; 240 h, Maf-lineage6 (d), Day 10): ~46400 µM | MIC (Maf-lineage6; 288 h, Maf-lineage6 (a), Day 12): ~0.594 µM | MIC (Maf-lineage6; 288 h, Maf-lineage6 (b), Day 12): 1460 µM | MIC (Maf-lineage6; 288 h, Maf-lineage6 (c), Day 12): 100 µM | MIC (Maf-lineage6; 312 h, Maf-lineage6 (a), Day 13): ~0.562 µM | MIC (Maf-lineage6; 312 h, Maf-lineage6 (b), Day 13): 1260 µM | MIC (Maf-lineage6; 312 h, Maf-lineage6 (c), Day 13): 100 µM | MIC (Maf-lineage6; 336 h, Maf-lineage6 (a), Day 14): ~0.541 µM | MIC (Maf-lineage6; 336 h, Maf-lineage6 (b), Day 14): 1520 µM | MIC (Maf-lineage6; 336 h, Maf-lineage6 (c), Day 14): 100 µM | MIC (Maf-lineage6; 360 h, Maf-lineage6 (a), Day 15): ~0.515 µM | MIC (Maf-lineage6; 360 h, Maf-lineage6 (b), Day 15): ~3590 µM | MIC (Maf-lineage6; 360 h, Maf-lineage6 (c), Day 15): 100 µM | MIC (Maf-lineage6; […], Maf-lineage6 (a), Day 11): ~0.721 µM | MIC (Maf-lineage6; […], Maf-lineage6 (b), Day 11): ~2390 µM | MIC (Maf-lineage6; […], Maf-lineage6 (c), Day 11): 101 µM | susceptibility to direct inhibition (Mtb-lineage4; Example 4, Mtb-lineage4, concentrations up to 200 μM): more susceptible to direct inhibition | MIC (Mtb-lineage4; Mtb-lineage4, Day 11): Unstable | MIC (Mtb-lineage4; Mtb-lineage4, Day 12): Unstable | MIC (Mtb-lineage4; Mtb-lineage4, Day 13): Unstable | MIC (Mtb-lineage4; Mtb-lineage4, Day 14): Unstable | direct inhibition of growth (Mtb-lineage4): not | MIC (Mtb-lineage4; Mycobacterium tuberculosis, 240 h, Mtb-lineage4, Day 10, read-out: MIC): 98.8 µM | MIC (Maf-lineage5; 240 h, Maf-lineage5, Day 10): 58.1 µM | MIC (Maf-lineage5; 288 h, Maf-lineage5, Day 12): 60.8 µM | MIC (Maf-lineage5; 312 h, Maf-lineage5, Day 13): 62 µM | MIC (Maf-lineage5; 336 h, Maf-lineage5, Day 14): 63.4 µM | MIC (Maf-lineage5; 360 h, Maf-lineage5, Day 15): 65.2 µM | susceptibility to direct inhibition (Maf-lineage5; Example 4, Maf-lineage5, concentrations up to 200 μM): more susceptible to direct inhibition | MIC (Maf-lineage5; Maf-lineage5, Day 11): 59.5 µM | direct inhibition of growth (Maf-lineage5): not
